According to US8524703B2, “Bridgehead amine ring-fused indoles and indolines” (AbbVie Inc., priority 2009, dated 2013):
“Also recorded” adds a separate entry of the source.

Experiments:
[1] = system: mice; assay: Inhibitory Avoidance in Mouse (24-hour recall); type: in vivo; details: 24 hours after initial exposure, 0.001, 0.01, 0.1, and 1.0 mg/kg i.p., versus control
Description: Inhibitory Avoidance in Mouse: The inhibitory avoidance task involves the uses of a two-compartment step through apparatus (Ugo Basile, Collegeville, Pa.) that measures the animal's ability to remember a brief noxious stimulus (foot shock), and is considered a measure of trial learning, and memory consolidation. Briefly, 30 minutes after dosing, mice were placed in a lighted compartment of the apparatus where the latency to enter into the preferred dark compartment is recorded. Entry into a dark compartment results in the immediate delivery of a mild foot shock (0.2 mA, 1-second duration). Retention testing is conducted 24 hours later with the animal again placed in the lighted compartment where its latency to reenter the dark side of the apparatus is measured (no shock). Increasing retention latency is regarded as an index of memory consolidation (Bitner, R. S.; Bunnelle, W. H.; et al. Broad-spectrum efficacy across cognitive domains by α7 nicotinic acetylcholine receptor agonism correlates with activation of ERK1/2 and CREB phosphorylation pathways. J. Neurosci. 2007, 27 (39), 10578-10587.). […] (*p<0.05; **p<0.01, ***p<0.001 versus control)

[2] = system: SK-N-SH human neuroblastoma cells; assay: Serum Deprivation/JC-1 Mitochondrial Membrane Potential (MMP) Assay; type: cell-based; details: Homo sapiens, SK-N-SH; for Emax: percent maximal JC-1 ratio normalized to peak value for 10 μM dimebolin, read-out: JC-1 max %; for EC50: serum deprivation ~18 hours, JC-1 ratio normalized to peak value for 10 μM dimebolin
Description: Tissue Culture: SK-N-SH human neuroblastoma cells obtained from American Type Culture Collection (Rockville, Md.) were maintained in the log phase of growth in Minimal Essential Media (MEM), 10% heat inactivated fetal calf serum and 100 units/mL antibiotic-antimycotic (AA). Cells were cultured and maintained in a humidified incubator at 37° C. under 5% CO2 and 95% air. Cells were trypsinized (0.25%) and subcultured every 3 days and used from 15-18 passages. All cell culture supplies were obtained from Invitrogen (Carlsbad, Calif.).
Serum Deprivation/JC-1 Mitochondrial Membrane Potential (MMP) Assay.
SK-N-SH cells were plated 2-3 days in advance at a concentration of 50,000 cells/well onto collagen coated black-walled 96 well plates (Becton-Dickinson, Bedford, Mass.) in a total volume of 200 μL. On day of experimental treatment, the media containing serum was aspirated from each well and rinsed once with MEM/1% AA without serum. The cells then were incubated overnight in 100 μL of MEM/1% AA (no serum) with and without dimebolin or novel chemical entities overnight for ˜18 hours. The following day, JC-1 dye (5,5′,6,6′-tetrachloro-1,1′,3,3′-tetraethylbenzimidazolcarbocyanide) was diluted 1:10 into MEM media according to the JC-1 Mitochondrial Membrane Potential Assay Kit: (Cayman Chemical Company, Ann Arbor, Mich.) and then 10 μL of the JC-1 dye solution was added to each well. The plates were centrifuged for 5 minutes at 400×g at room temperature followed by 40 minute incubation at 37° C. The plates were washed twice with 200 μL of provided Assay Buffer followed an addition of 100 μL of Assay Buffer to each well. The plates were read with an excitation and emission of 560 nm and 595 nM for red fluorescence and with an excitation and emission of […] and 535 nM for green fluorescence to determine the final JC-1 value taking the red to green fluorescence ratio. This assay is based on change in mitochondrial membrane potential (MMP) using this lipophilic cationic dye, JC-1, by monitoring the changes in the ratio of red to green fluorescence as the MMP depolarizes. This change in MMP reflects the health of the cell with healthy, viable cells have a high JC-1 ratio and high MMP whereas apoptotic, unhealthy cells have a low JC-1 ratio or low MMP.
For the ability of compounds to reverse the stress due to serum deprivation and increase the JC-1 ratio, the percent maximal intensity in JC-1 ratio was normalized to that induced by the peak value for 10 μM dimebolin and plotted against the compound concentration to calculate EC50 values and to control for plate-to-plate variability. Concentration-response data were analyzed using GraphPad Prism (San Diego, Calif.); the EC50 values were derived from a single curve fit to the mean data of n=2-3, in duplicates.
All compounds were dissolved in dimethyl sulfoxide at 10 mM stock solutions and tested at a concentration that the dimethyl sulfoxide levels never exceeded 1%.

[3] = system: primary postnatal (P0) cortical cells; assay: Neurite Outgrowth Assay (neuroprotection against Aβ1-42-induced reduction of neurite outgrowth); type: cell-based, rat; details: for % Attenuation Effect of 5 μM Aβ 1-42: 5 μM Aβ1-42, 3 days, compound pretreatment about 5 hours; for Emax at 3 µM / Emax at 0.3 µM: Rattus norvegicus, relative to 300 nM dimebolin, read-out: Maximum Effect (of % 300 nM Dimebolin) at Concentration; for Emax at 3 µM: maximum response at 3000 nM test compound; for Emax at 0.3 µM: maximum response at 300 nM test compound
Description: In addition to PC12 cells, other cellular model systems may also be used. Rat cortical cells can be cultured and prepared for high content microscopy analysis as previously described (Hu, M.; Schurdak, M. E.; et al. High content screen microscopy analysis of Aβ1-42-induced neurite outgrowth reduction in rat primary cortical neurons: Neuroprotective effects of α7 neuronal nicotinic acetylcholine receptor ligands. Brain Res. 2007, 1151, 227-235.). Briefly, cortical cell cultures are plated at density of 5×10^5 cells/mL onto poly-D-lysine coated 96-well plates and maintained in a cell incubator at 37° C. with 5% CO2. Experiments are performed using 6-7 day-old cortical cell cultures by treating with test compounds. In some experiments, the effect of test compounds on reversing Aβ toxicity can also be measured (Hu, M.; Schurdak, M. E.; et al. High content screen microscopy analysis of Aβ1-42-induced neurite outgrowth reduction in rat primary cortical neurons: Neuroprotective effects of α7 neuronal nicotinic acetylcholine receptor ligands. Brain Res. 2007, 1151, 227-235.). For assessment of neuroprotective effects, cells are first pretreated with test compounds for about 5 hours. Medium is then replaced with the medium containing freshly prepared about 5 μM Aβ1-42 peptide in the absence or presence of the test compounds for 3 days. The untreated group contains the same percentage of vehicle (DMSO) as in the treatment groups. Cells are fixed with approximately 4% paraformaldehyde containing 0.5% Hoechst 33342 for about 15 minutes, followed by three washes using PBS (pH 7.4) and blocked with 10% donkey serum in PBS for 1 hour at room temperature. The cells are then incubated overnight at about 4° C. with mouse anti-tubulin monoclonal antibody (1:100) for staining neurons and rabbit anti-GFAP (1:1000) for staining glia. In the next day, cells are incubated with FITC-labeled anti-mouse and TRITC-labeled anti-rabbit antibodies (1:1000) for about 1 hour at room temperature. After fixing and staining the cells, nuclei (360/400 nm excitation and 465/300 nm emission filters), neuron (475/350 nm excitation and 535/400 nm emission filters) and glial cell (535 nm excitation and 610 nm emission filters) images are collected using the ImageExpress Micro automatic fluorescent microscopy system (Molecular Devices, Sunnyvale, Calif.) employing a Nikon 10× Plan Fluor objective and Cool Snap HQ CCD camera. The Neurite Outgrowth module in the MetaMorph Imaging software can be used to automatically count total cell number, number of neuron cells, and the extent of neurite outgrowth.
The neurite outgrowth observed for untreated cells is set to 100% response. Treatment of cells with compounds prior to and concomitantly with Aβ1-42 gave a neuroprotective effect with neurite outgrowth maintained or enhanced relative to untreated cells.

[4] = system: primary rat cortical neurons; details: comparable to that evoked by BDNF; cited from earlier work
[5] = system: Patients with mild-to-moderate Alzheimer's disease; details: cited from earlier work

| Structure (SMILES) | Emax [2] [%] | EC50 [2] [µM] | other results |
| --- | --- | --- | --- |
| Cc1ccc(/C=C/c2cccc3c4c([nH]c23)C2CCN(CC2)C4)cn1 [Example 1, 7-[(E)-2-(6-methylpyridin-3-yl)vinyl]-3,4,5,6-tetrahydro-1H-2,5-ethanoazepino[4,3-b]indole] | 139 | 6.02 | latency to reenter the dark side (punishment side) [1]: significantly increased; also recorded: concentration-dependent improvement; % Attenuation Effect of 5 μM Aβ 1-42 [3]: 34%; Emax at 3 µM [3]: 106% |
| Cc1ccc2c(c1)c1c(n2CCc2ccc(C)nc2)CCN(C)C1 [dimebolin, 2,3,4,5-tetrahydro-2,8-dimethyl-5-[2-(6-methyl-3-pyridinyl)ethyl]-1H-pyrido[4,3-b]indole] | – | – | neurite outgrowth [4]: increase neurite outgrowth; clinical course of disease, improvement over baseline for ADAS-Cog ([5]; 20 mg three times a day (60 mg/day)): significant improvement; most frequent adverse event ([5]; recently reported clinical studies): dry mouth |
| c1cnc2ccc(-c3cccc4c5c([nH]c34)C3CCN(CC3)C5)cc2c1 [Example 27, 7-quinolin-6-yl-3,4,5,6-tetrahydro-1H-2,5-ethanoazepino[4,3-b]indole] | 133 | 6.39 | % Attenuation Effect of 5 μM Aβ 1-42 [3]: 38%; Emax at 0.3 µM [3]: 109% |
| Cc1ccc(/C=C/c2cccc3c4c([nH]c23)CN2CCC4CC2)cn1 [Example 32, 9-[(E)-2-(6-methylpyridin-3-yl)vinyl]-3,4,5,10-tetrahydro-1H-2,5-ethanoazepino[3,4-b]indole] | 199 | 3.64 | – |
| C(=C\c1cccc2c3c([nH]c12)C1CCN(CC1)C3)/c1ccsc1 [Example 6, 7-[(E)-2-thien-3-ylvinyl]-3,4,5,6-tetrahydro-1H-2,5-ethanoazepino[4,3-b]indole] | 67 | 6.62 | – |
| Cc1ccc(-c2cccc3c4c([nH]c23)C2CCN(CC2)C4)cn1 [Example 37, 7-(6-methylpyridin-3-yl)-3,4,5,6-tetrahydro-1H-2,5-ethanoazepino[4,3-b]indole] | 179 | 8.66 | – |
| Cc1ccc(C#Cc2cccc3[nH]c4c(c23)CN2CCC4CC2)cn1 [Example 23, 10-[(6-methylpyridin-3-yl)ethynyl]-3,4,5,6-tetrahydro-1H-2,5-ethanoazepino[4,3-b]indole] | 140 | 7.27 | – |
| Cc1ccc(/C=C/c2ccc3[nH]c4c(c3c2)CN2CCC4CC2)cn1 [Example 8, 9-[(E)-2-(6-methylpyridin-3-yl)vinyl]-3,4,5,6-tetrahydro-1H-2,5-ethanoazepino[4,3-b]indole] | 162 | 4.05 | % Attenuation Effect of 5 μM Aβ 1-42 [3]: 49%; Emax at 0.3 µM [3]: 121% |
| c1cc(-c2ccncc2)c2[nH]c3c(c2c1)CN1CCC3CC1 [Example 40, 7-(pyridin-4-yl)-3,4,5,6-tetrahydro-1H-2,5-ethanoazepino[4,3-b]indole] | 92 | 8.99 | – |
| Cc1ccc(C#Cc2cc(F)cc3c4c([nH]c23)C2CCN(CC2)C4)cn1 [Example 24, 9-fluoro-7-[(6-methylpyridin-3-yl)ethynyl]-3,4,5,6-tetrahydro-1H-2,5-ethanoazepino[4,3-b]indole] | 156 | 5.38 | – |
| Cc1ccc(/C=C/c2cccc3[nH]c4c(c23)CN2CCC4CC2)cn1 [Example 18, 10-[(E)-2-(6-methylpyridin-3-yl)vinyl]-3,4,5,6-tetrahydro-1H-2,5-ethanoazepino[4,3-b]indole] | 173 | 3.1 | – |
| C(=C/c1cccc2c3c([nH]c12)C1CCN(CC1)C3)/c1cncnc1 (single isomer, unassigned) [Example 30, 7-[(Z)-2-(pyrimidin-5-yl)vinyl]-3,4,5,6-tetrahydro-1H-2,5-ethanoazepino[4,3-b]indole] | 29 | > 30 | – |
| Cc1ccc(C#Cc2cccc3c4c([nH]c23)C2CCN(CC2)C4)cn1 [Example 3, 7-[(6-methylpyridin-3-yl)ethynyl]-3,4,5,6-tetrahydro-1H-2,5-ethanoazepino[4,3-b]indole] | 188 | 4.36 | latency to reenter the dark side (punishment side) [1]: significantly increased; also recorded: concentration-dependent improvement; % Attenuation Effect of 5 μM Aβ 1-42 [3]: 43%; Emax at 3 µM [3]: 115% |
| c1ccc(CCCCCc2cccc3c4c([nH]c23)C2CCN(CC2)C4)cc1 [Example 7, 7-(5-phenylpentyl)-3,4,5,6-tetrahydro-1H-2,5-ethanoazepino[4,3-b]indole] | 62 | 1.43 | – |
